US12213479B2, “Monoterpenoid/phenylpropanoid-containing compounds and methods of their making and use as herbicides” (KITTRICH CORPORATION, priority 2016, dated 2025)
Entries after “also recorded” stand apart in the source; their conditions may differ.

Assays:
[1] = system: Velvetleaf (Abutilon theophrasti); assay: Weed soil drench assay, velvetleaf; assay type: in vivo; conditions: for Percentage mortality: Velvet Leaf, 40 mL of 5% solution, soil drench; for chlorosis and phytotoxicity: velvet leaf, 40 ml of 5%, 2 days after application
Description: Velvetleaf plants were obtained from the wild in prairie fields in Iowa. Plants were carefully transplanted into pots (6″ wide×4.5″ deep) with approximately 800 mL of soil for each plant. Plants were maintained in a greenhouse under a constant temperature and light environment (25±5° C., 12 hr: 12 hr light: dark cycle). Plants were watered every 2-3 days as needed.
(§1) Formulations of the various active ingredients were created using the monoterpenoid derivatives, potassium hydroxide, and Triton-X 100™ to aid in the solvation of the active ingredient. Formulations included 5% active ingredient by weight (0.5-1 g/100 ml water), with a 1:1 molar ratio of potassium hydroxide used to aid in the solvation (135-269 mg/100 mL for both thymyloxyacetic acid and carvacryloxyacetic acid). […] Observations were performed 2 days and 3 weeks after soil drench to determine the effects of the treatments on the various types and stages of plants. Phytotoxicity is reported as percentage of total plants treated compared to a control treatment that was exposed to a similar formulation (without the active monoterpenoid derivatives).

Wood sorrel = assay: Foliar spray, wood sorrel; assay type: in vivo; conditions: 20 sprays of 1%; observed 2 days after exposure and later
Description: Wood sorrel on the ground of the greenhouse was also treated with active ingredient in order to better assess the effects of foliar treatments on multiple plant species. A patch of wood sorrel was (approximately 4′×3′) was treated with 20 sprays (mist setting) from a MAINStays ironing spray bottle. Effects of the spray were recorded 2 days after exposure.

Soybean plants [2] = assay: Soil drench assay, soybean plants; assay type: in vivo; set-up: key: NOE: No Observable Effect; XXX: Dead; -: the lowest phytotoxic effect; --: phytotoxicity that did not result in death; ---: phytotoxicity that did not result in death; ------: the highest; conditions: 3-weeks after treatment, Old Plants, 7%, 40 mL
corn seeds = assay: Germination assay, corn seeds coated with compound; conditions: for corn seed germination at day 3: seed coating
Corn = assay: Pre-emergence assay, corn; assay type: in vivo; conditions: for pre-emergent effect on corn (words): 1%, 3-weeks after application; for qualitative growth assessment, pre-emergence: Corn, soil treated with 40 ml of 1% solution 1 day after planting, 3 weeks after application
Description: Corn plants were planted under ½″ of potting soil and watered every 2-3 days as necessary. Plants were grown in potting plants (6″ wide×4.5″ deep) with approximately 800 mL of soil for each plant. Plants germinated approximately 4-7 days after being planted. Plants were grown in a greenhouse under a constant temperature and light environment (25±5° C., 12 hr: 12 hr light: dark cycle).
1-day after seeds/beans were planted, soil was drenched with 40 ml of formulation with 1% active ingredient. This was done to assess germination inhibition in the soil. […] Qualitative growth assessment was made by comparing the treated plants to the untreated controls.

[3] = system: Lamb's Quarters (Chenopodium album); assay: Weed soil drench assay, lamb's quarters; assay type: in vivo; conditions: for Percentage mortality: Lamb's quarters, 40 mL of 5% solution, soil drench; for chlorosis and phytotoxicity: lamb's quarters, 40 ml of 5%, two days after application
Description: Lamb's quarters seeds were obtained from the Department of Agronomy at Iowa State University. Individual seeds were sown for each pot (6″ wide×4.5″ deep) with approximately 800 mL of soil for each plant. Only plants that germinated were used for the study. Plants were treated 1-2 weeks post emergence. Plants were watered every 2-3 days as needed.
as §1

[4] = system: Cocklebur (Xanthium spp.); assay: Toxicity assay (probit LC50), cocklebur; assay type: in vivo
Source text: (§2) Cocklebur burs were obtained from the Department of Agronomy at Iowa State University. Individual seeds were sown for each pot (1.5″ wide×3″ deep) with approximately 7.5 g of soil for each plot. One bur/plot was sown into numerous plots. After one month of germination, germinated plants were counted in each plot and this number was used for the total number of plants challenged per plot in the toxicity assessment.
(§3) The total number of plants were counted in each plot in 24×6 hexagonal small plot planter tray. The number of germinated seeds in each plot was enumerated after one month, and for each plot this number was recorded and used as the total for each plot. Differing concentrations of thymyloxyacetic acid was applied in 5% Triton-X 100 and 1:1 molar ratio potassium hydroxide:thymyloxyacetic acid to aid in the solubility of the compound in water. Ten mL of solution was applied to each plot, and the mortality of the plants was assessed at 3 days and 2 weeks post application (for some treatments). Mortality at these time points were enumerated out of the total plants germinated in each plot at the beginning of the assay. At both time points, the total number of dead plants and total number of plants at the beginning of the assay were recorded for each observation. A Probit model was used to calculate the LC50 values for each of the compounds explored in this assay. A formulation control (with no active ingredient) was screened against a number of plants and factored into the final probit model. This formulation control had little-to-no effect by itself.

[5] = system: Waterhemp (Amaranthus tuberculatus); assay: Toxicity assay (probit LC50), waterhemp; assay type: in vivo
Source text: as §2, with “Waterhemp seeds” for “Cocklebur burs”, “Five seeds/plot” for “One bur/plot”
as §3

Soybean plants [6] = assay: Foliar spray assay, soybean plants; assay type: in vivo; conditions: 1% foliar spray; for phytotoxic effects on soybean plants (words), foliar spray: 1-month old soybean plants, up to 14 days after exposure; for chlorosis / leaf death: soybean plants
Description: Soybean plants were planted under 1 cm of potting soil and watered every 2-3 days as necessary. Plants were grown in pots (6″ wide×4.5″ deep) with approximately 800 mL of soil for each plant. Plants germinated approximately 3-5 days after being planted. Plants were grown in a greenhouse under a constant temperature and light environment (25±5° C., 12 hr:12 hr light:dark cycle). Plants were grown until reaching 4 weeks old and were then used for the foliar spray experiment.
Formulations were made to include 1% thymyloxyacetic acid, 0.269% potassium hydroxide, and 0.25% Triton-X 100™. Soybean plants were sprayed with 10 mists from a MAINStays™ Ironing Spray bottle set to the mist setting. This corresponded to the minimum amount necessary to cause dripping from the leaves of the plants. […] Plants were placed under high intensity light (directly below greenhouse lamps) and low intensity light (not under lamp/ambient light environment). Light intensity was chosen as a factor for this experimental design. […] This effect is greatly diminished under low intensity light conditions. If thymyloxyacetic acid is causing phytotoxicity in the same mechanism of action as other plant terpenoids, there should be a drastic difference in the phytotoxicity among these different levels of light intensity.

For Cc1ccc(C(C)C)cc1OCC(=O)O [carvacryloxyacetic acid, 2-(5-isopropyl-2-methylphenoxy)acetic acid], the Percentage mortality ([1]; 2-days after treatment) was 100%, the Percentage mortality ([1]; 3-weeks after treatment) was 100% and the “chlorosis and phytotoxicity” value [1] was “significant chlorosis and phytotoxicity”. For the same compound, the “phytotoxic effect on wood sorrel, foliar spray” value (Wood sorrel) was “Death followed quickly after 2 days post-exposure; also recorded: immediate and widespread chlorosis followed by relatively quick plant death”, the “phytotoxicity (qualitative), soil drench” value (Soybean plants [2]) was “XXX” and the “corn seed germination at day 3” value (corn seeds) was “some level of germination”. For the same compound, the “pre-emergent effect on corn (words)” value (Corn) was “significant inhibition in corn growth”, the “pre-emergent effect on corn (words)” value (Corn; listed as Carvacryloxyacetic acid) was “significantly inhibited the growth” and the “qualitative growth assessment, pre-emergence” value (Corn) was “− −”. The Percentage mortality ([3]; 2-days after treatment) was 100%, the Percentage mortality ([3]; 3-weeks after treatment) was 100% and the “chlorosis and phytotoxicity” value [3] was “significant chlorosis and phytotoxicity”.

Cc1ccc(C(C)C)c(OCC(=O)O)c1 [thymyloxyacetic acid, 2-(2-isopropyl-5-methylphenoxy)acetic acid] was tested, and the “LC50 Value” ([4]; Cocklebur) was 1530 ppm, the “Selective Toxicity Compared to Bluegrass” value ([4]; Cocklebur compared to bluegrass) was 2.29 and the “LC50 Value” ([5]; Waterhemp) was 700 ppm. The “Selective Toxicity Compared to Bluegrass” value ([5]; Waterhemp compared to bluegrass) was 5, the Percentage mortality ([1]; 2-days after treatment) was 100% and the Percentage mortality ([1]; 3-weeks after treatment) was 100%. The “chlorosis and phytotoxicity” value [1] was “significant chlorosis and phytotoxicity”, the “phytotoxic effects on soybean plants (words), foliar spray” value (Soybean plants [6]) was “significant chlorosis and wilting” and the “phytotoxic effects on soybean plants (words), foliar spray” value (Soybean plants [6]; listed as Thymyloxyacetic acid) was “significant phytotoxic effects”. The chlorosis (Soybean plants [6]; High intensity light) was “✓”, the leaf death (Soybean plants [6]; High intensity light) was “✓” and the chlorosis (Soybean plants [6]; Low intensity light) was “✓”. For the same compound, the leaf death (Soybean plants [6]; Low intensity light) was “✓”, the “phytotoxicity (qualitative), soil drench” value (Soybean plants [2]) was “XXX” and the “inhibition of corn seed germination” value (corn seeds; seed coating 1% weight compound/weight seed, 3, 5, 7 days) was “second most significant inhibition”. For the same compound, the “corn seed germination at day 3” value (corn seeds) was “prevented any germination”, the “pre-emergent effect on corn (words)” value (Corn) was “significantly inhibited; also recorded: capable of inhibiting the growth” and the “qualitative growth assessment, pre-emergence” value (Corn) was “−”. For the same compound, the Percentage mortality ([3]; 2-days after treatment) was 100%, the Percentage mortality ([3]; 3-weeks after treatment) was 100% and the “chlorosis and phytotoxicity” value [3] was “significant chlorosis and phytotoxicity”.
